# From PMC5362750, “Discovery of Potent, Selective, and Orally Bioavailable Small-Molecule Modulators of the Mediator Complex-Associated Kinases CDK8 and CDK19” (Journal of Medicinal Chemistry, 2016)
# Tests used:
# CSK = CSK (Homo sapiens, UniProt P41240); experiment: Kinase panel (Millipore); assay type: biochemical; conditions: 1 µM, ATP at Km
# BTK(R28H) = BTK(R28H) (Homo sapiens, UniProt Q06187, R28H); conditions: 1 µM, ATP at Km
# [1] = biological target: GABAA1 (h) (alpha 1,beta 2,gamma 2) (Homo sapiens, UniProt P14867+P47870); experiment: biochemical; conditions: read-out: % Inhibition of Control Specific Binding
# ABL(T315I) = ABL(T315I) (Homo sapiens, UniProt P00519, T315I); conditions: 1 µM, ATP at Km
# PDK1 = PDK1 (Homo sapiens, UniProt O15530); experiment: Kinase panel (Millipore); assay type: biochemical; conditions: 1 µM, ATP at Km
# PHKGAMMA2 = PHKGAMMA2 (Homo sapiens, UniProt P15735); experiment: Kinase panel (Millipore); assay type: biochemical; conditions: 1 µM, ATP at Km
# GRK5 = biological target: T1, GRK5 (Homo sapiens, UniProt P34947); experiment: Kinase panel (Millipore); assay type: biochemical; conditions: 1 µM, ATP at Km
# T1 construct: purchased Millipore (KinaseProfiler) kinase panel
# AR (h) = conditions: 10 µM, agonist radioligand
# ZIPK = ZIPK (Homo sapiens, UniProt O43293); experiment: Kinase panel (Millipore); assay type: biochemical; conditions: 1 µM, ATP at Km
# D2S (h) = D2S (h) (Homo sapiens, UniProt P14416); experiment: biochemical; conditions: read-out: % Inhibition of Control Specific Binding
# cMET (Y1248D) = cMET (Y1248D) (Homo sapiens, UniProt P08581, Y1230D); conditions: 1 µM, ATP at Km
# SAPK4 = SAPK4 (Homo sapiens, UniProt O15264); experiment: Kinase panel (Millipore); assay type: biochemical; conditions: 1 µM, ATP at Km
# SAPK2A = SAPK2A (Homo sapiens, UniProt Q16539); experiment: Kinase panel (Millipore); assay type: biochemical; conditions: 1 µM, ATP at Km
# AMPA = conditions: 10 µM, agonist radioligand
# PLK1 = PLK1 (Homo sapiens, UniProt P53350); experiment: Kinase panel (Millipore); assay type: biochemical; conditions: 1 µM, ATP at Km
# MST1 = MST1 (Homo sapiens, UniProt Q13043); experiment: Kinase panel (Millipore); assay type: biochemical; conditions: 1 µM, ATP at Km
# JAK3 = biological target: T2, JAK3 (Homo sapiens, UniProt P52333); experiment: Kinase panel (Millipore); assay type: biochemical; conditions: 1 µM, ATP at Km
# T2 construct: purchased Millipore (KinaseProfiler) kinase panel
# SGK2 = biological target: T3, SGK2 (Homo sapiens, UniProt Q9HBY8); experiment: Kinase panel (Millipore); assay type: biochemical; conditions: 1 µM, ATP at Km
# T3 construct: purchased Millipore (KinaseProfiler) kinase panel
# NEK3 = biological target: T4, NEK3 (Homo sapiens, UniProt P51956); experiment: Kinase panel (Millipore); assay type: biochemical; conditions: 1 µM, ATP at Km
# T4 construct: purchased Millipore (KinaseProfiler) kinase panel
# 5-HT2C (h) = 5-HT2C (h) (Homo sapiens, UniProt P28335); experiment: biochemical; conditions: read-out: % Inhibition of Control Specific Binding
# VRK2 = biological target: T5, VRK2 (Homo sapiens, UniProt Q86Y07); experiment: Kinase panel (Millipore); assay type: biochemical; conditions: 1 µM, ATP at Km
# T5 construct: purchased Millipore (KinaseProfiler) kinase panel
# GSK3BETA = GSK3BETA (Homo sapiens, UniProt P49841); experiment: Kinase panel (Millipore); assay type: biochemical; conditions: 1 µM, ATP at Km
# PDGFRBETA = biological target: T6, PDGFRBETA (Homo sapiens, UniProt P09619); experiment: Kinase panel (Millipore); assay type: biochemical; conditions: 1 µM, ATP at Km
# T6 construct: purchased Millipore (KinaseProfiler) kinase panel
# PAK2 = biological target: T7, PAK2 (Homo sapiens, UniProt Q13177); experiment: Kinase panel (Millipore); assay type: biochemical; conditions: 1 µM, ATP at Km
# T7 construct: purchased Millipore (KinaseProfiler) kinase panel
# BRK = biological target: T8, BRK (Homo sapiens, UniProt Q13882); experiment: Kinase panel (Millipore); assay type: biochemical; conditions: 1 µM, ATP at Km
# T8 construct: purchased Millipore (KinaseProfiler) kinase panel
# PAF (h) = biological target: T9, PAF (h) (Homo sapiens, UniProt P25105); experiment: CEREP binding assay; conditions: agonist radioligand, read-out: % Inhibition of Control Specific Binding
# T9 construct: purchased Millipore (KinaseProfiler) kinase panel
# EGFR = EGFR (Homo sapiens, UniProt P00533); experiment: Kinase panel (Millipore); assay type: biochemical; conditions: 1 µM, ATP at Km
# AURKA = AURKA (Homo sapiens, UniProt O14965); experiment: Kinase panel (Millipore); assay type: biochemical; conditions: 1 µM, ATP at Km
# MST3 = biological target: T10, MST3 (Homo sapiens, UniProt Q9Y6E0); experiment: Kinase panel (Millipore); assay type: biochemical; conditions: 1 µM, ATP at Km
# T10 construct: purchased Millipore (KinaseProfiler) kinase panel
# ZAP-70 = biological target: T11, ZAP-70 (Homo sapiens, UniProt P43403); experiment: Kinase panel (Millipore); assay type: biochemical; conditions: 1 µM, ATP at Km
# T11 construct: purchased Millipore (KinaseProfiler) kinase panel
# FGFR2 = FGFR2 (Homo sapiens, UniProt P21802); experiment: Kinase panel (Millipore); assay type: biochemical; conditions: 1 µM, ATP at Km
# GRK6 = biological target: T12, GRK6 (Homo sapiens, UniProt P43250); experiment: Kinase panel (Millipore); assay type: biochemical; conditions: 1 µM, ATP at Km
# T12 construct: purchased Millipore (KinaseProfiler) kinase panel
# CDK7/CYCLINH/MAT1 = CDK7/CYCLINH/MAT1 (Homo sapiens, UniProt P50613); conditions: 1 µM, ATP at Km
# UT (h) = biological target: T13, UT (h) (Homo sapiens, UniProt Q9UKP6); experiment: CEREP binding assay; conditions: agonist radioligand, read-out: % Inhibition of Control Specific Binding
# T13 construct: CEREP
# EPHB1 = biological target: T14, EPHB1 (Homo sapiens, UniProt P54762); experiment: Kinase panel (Millipore); assay type: biochemical; conditions: 1 µM, ATP at Km
# T14 construct: purchased Millipore (KinaseProfiler) kinase panel
# PASK = biological target: T15, PASK (Homo sapiens, UniProt Q96RG2); experiment: Kinase panel (Millipore); assay type: biochemical; conditions: 1 µM, ATP at Km
# T15 construct: purchased Millipore (KinaseProfiler) kinase panel
# N muscle-type (h) = N muscle-type (h) (Homo sapiens, UniProt P02708+P07510+Q07001); experiment: biochemical; conditions: read-out: % Inhibition of Control Specific Binding
# BLK = BLK (Homo sapiens, UniProt P51451); experiment: Kinase panel (Millipore); assay type: biochemical; conditions: 1 µM, ATP at Km
# FGR = FGR (Homo sapiens, UniProt P09769); experiment: Kinase panel (Millipore); assay type: biochemical; conditions: 1 µM, ATP at Km
# RSE = biological target: T16, RSE (Homo sapiens, UniProt Q06418); experiment: Kinase panel (Millipore); assay type: biochemical; conditions: 1 µM, ATP at Km
# T16 construct: purchased Millipore (KinaseProfiler) kinase panel
# IGF-1R = biological target: T17, IGF-1R (Homo sapiens, UniProt P08069); experiment: Kinase panel (Millipore); assay type: biochemical; conditions: 1 µM, ATP at Km
# T17 construct: purchased Millipore (KinaseProfiler) kinase panel
# FGFR1 = biological target: T18, FGFR1 (Homo sapiens, UniProt P11362); experiment: Kinase panel (Millipore); assay type: biochemical; conditions: 1 µM, ATP at Km
# T18 construct: purchased Millipore (KinaseProfiler) kinase panel
# LOK = biological target: T19, LOK (Homo sapiens, UniProt O94804); experiment: Kinase panel (Millipore); assay type: biochemical; conditions: 1 µM, ATP at Km
# T19 construct: purchased Millipore (KinaseProfiler) kinase panel
# Chain of CSK (P41240 whole entry): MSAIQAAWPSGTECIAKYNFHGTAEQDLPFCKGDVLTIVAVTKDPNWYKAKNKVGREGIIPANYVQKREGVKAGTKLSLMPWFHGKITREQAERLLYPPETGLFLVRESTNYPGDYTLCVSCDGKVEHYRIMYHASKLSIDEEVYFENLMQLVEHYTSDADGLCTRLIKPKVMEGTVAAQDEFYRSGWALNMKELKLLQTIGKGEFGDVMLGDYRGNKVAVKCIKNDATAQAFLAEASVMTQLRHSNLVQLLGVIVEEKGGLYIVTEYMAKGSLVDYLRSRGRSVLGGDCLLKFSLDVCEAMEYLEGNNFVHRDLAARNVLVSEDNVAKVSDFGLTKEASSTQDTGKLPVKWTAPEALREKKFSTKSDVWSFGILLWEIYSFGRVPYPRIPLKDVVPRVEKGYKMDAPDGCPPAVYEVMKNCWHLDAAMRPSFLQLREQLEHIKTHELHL
# T15 sequence (Q96RG2 whole entry): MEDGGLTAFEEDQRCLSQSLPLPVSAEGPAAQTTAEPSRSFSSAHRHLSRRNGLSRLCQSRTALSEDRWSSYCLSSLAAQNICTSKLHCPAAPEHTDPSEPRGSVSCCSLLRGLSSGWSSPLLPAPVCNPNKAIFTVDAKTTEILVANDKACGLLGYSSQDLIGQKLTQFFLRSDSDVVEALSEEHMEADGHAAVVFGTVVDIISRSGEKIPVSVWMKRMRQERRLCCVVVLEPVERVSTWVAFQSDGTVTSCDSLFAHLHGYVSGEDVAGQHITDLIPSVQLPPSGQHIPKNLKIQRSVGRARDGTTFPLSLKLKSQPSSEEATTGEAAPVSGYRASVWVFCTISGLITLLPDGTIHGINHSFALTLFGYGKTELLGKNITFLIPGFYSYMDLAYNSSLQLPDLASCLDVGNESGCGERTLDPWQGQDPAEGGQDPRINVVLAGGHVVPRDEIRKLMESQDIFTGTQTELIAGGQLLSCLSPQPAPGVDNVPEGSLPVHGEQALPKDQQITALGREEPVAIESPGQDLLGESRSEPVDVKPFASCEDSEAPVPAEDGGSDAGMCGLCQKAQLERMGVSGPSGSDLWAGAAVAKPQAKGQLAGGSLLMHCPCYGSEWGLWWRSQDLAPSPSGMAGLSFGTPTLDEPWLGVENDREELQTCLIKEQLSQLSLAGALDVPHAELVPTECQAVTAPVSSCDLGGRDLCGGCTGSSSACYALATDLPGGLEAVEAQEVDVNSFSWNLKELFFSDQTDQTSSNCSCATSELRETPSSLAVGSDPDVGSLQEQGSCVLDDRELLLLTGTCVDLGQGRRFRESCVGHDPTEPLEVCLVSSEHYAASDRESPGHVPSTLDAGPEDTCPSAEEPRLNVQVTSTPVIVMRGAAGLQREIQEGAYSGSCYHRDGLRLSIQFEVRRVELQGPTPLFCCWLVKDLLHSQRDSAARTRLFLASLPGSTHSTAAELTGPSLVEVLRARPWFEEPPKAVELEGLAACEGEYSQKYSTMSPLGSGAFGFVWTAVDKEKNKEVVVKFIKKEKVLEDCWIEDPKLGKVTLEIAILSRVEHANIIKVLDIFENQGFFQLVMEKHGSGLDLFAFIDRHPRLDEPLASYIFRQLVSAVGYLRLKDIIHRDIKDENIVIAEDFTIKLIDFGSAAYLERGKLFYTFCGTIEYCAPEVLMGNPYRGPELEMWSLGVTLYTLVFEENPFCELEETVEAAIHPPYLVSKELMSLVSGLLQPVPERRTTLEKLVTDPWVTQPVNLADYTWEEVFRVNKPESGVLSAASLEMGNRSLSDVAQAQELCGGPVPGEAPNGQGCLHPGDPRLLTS
# Chain of N muscle-type (h) (P02708 21-457): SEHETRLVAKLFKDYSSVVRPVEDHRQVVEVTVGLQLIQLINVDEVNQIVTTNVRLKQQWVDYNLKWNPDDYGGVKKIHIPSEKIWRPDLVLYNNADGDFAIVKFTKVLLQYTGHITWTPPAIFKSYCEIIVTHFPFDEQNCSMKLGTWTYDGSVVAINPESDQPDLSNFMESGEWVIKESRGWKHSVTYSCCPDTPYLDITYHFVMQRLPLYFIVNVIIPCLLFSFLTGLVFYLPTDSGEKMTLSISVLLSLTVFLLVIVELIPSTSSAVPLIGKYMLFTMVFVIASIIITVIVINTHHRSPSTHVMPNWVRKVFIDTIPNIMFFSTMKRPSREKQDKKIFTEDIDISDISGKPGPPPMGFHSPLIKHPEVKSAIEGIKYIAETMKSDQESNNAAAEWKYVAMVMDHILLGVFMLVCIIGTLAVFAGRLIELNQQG
# Chain of N muscle-type (h) (P11230 24-501 partner): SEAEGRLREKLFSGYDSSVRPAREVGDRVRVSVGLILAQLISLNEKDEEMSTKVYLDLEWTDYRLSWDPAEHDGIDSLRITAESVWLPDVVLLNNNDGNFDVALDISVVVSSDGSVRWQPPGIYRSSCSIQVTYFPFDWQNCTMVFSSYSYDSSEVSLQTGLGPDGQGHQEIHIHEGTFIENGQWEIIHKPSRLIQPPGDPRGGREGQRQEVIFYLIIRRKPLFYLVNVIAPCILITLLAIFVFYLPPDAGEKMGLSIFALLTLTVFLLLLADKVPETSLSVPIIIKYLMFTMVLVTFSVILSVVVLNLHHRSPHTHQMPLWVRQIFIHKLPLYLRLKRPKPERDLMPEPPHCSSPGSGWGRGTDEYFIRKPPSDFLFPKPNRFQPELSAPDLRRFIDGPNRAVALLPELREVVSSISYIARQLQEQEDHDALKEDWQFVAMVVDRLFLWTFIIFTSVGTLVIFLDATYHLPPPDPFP
# Chain of N muscle-type (h) (Q07001 22-517): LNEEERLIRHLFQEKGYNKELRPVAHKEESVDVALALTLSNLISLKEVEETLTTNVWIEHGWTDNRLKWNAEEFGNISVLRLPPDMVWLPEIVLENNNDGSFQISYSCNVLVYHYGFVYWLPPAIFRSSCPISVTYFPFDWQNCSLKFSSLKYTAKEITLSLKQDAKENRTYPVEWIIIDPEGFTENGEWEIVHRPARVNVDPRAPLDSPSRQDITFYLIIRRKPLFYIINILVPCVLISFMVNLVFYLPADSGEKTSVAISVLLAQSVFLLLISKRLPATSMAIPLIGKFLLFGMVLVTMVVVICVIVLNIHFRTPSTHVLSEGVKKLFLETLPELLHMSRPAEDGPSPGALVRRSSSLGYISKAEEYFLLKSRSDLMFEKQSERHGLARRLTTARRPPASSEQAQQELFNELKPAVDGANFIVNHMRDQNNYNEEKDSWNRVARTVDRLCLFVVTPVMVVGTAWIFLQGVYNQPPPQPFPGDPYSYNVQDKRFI
# Chain of N muscle-type (h) (P07510 23-517): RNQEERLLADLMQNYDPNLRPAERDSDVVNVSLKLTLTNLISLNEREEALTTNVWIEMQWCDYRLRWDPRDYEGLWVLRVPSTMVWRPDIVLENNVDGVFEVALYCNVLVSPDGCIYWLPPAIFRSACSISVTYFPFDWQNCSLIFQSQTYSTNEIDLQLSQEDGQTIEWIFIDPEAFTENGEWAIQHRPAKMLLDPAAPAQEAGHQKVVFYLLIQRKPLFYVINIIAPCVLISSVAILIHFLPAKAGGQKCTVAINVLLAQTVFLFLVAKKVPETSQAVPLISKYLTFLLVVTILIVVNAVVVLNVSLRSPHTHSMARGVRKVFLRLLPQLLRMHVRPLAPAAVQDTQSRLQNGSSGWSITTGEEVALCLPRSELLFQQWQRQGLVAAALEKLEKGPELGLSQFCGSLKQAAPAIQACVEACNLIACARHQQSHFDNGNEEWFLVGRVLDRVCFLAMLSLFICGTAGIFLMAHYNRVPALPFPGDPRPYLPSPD
# T13 sequence (Q9UKP6 whole entry): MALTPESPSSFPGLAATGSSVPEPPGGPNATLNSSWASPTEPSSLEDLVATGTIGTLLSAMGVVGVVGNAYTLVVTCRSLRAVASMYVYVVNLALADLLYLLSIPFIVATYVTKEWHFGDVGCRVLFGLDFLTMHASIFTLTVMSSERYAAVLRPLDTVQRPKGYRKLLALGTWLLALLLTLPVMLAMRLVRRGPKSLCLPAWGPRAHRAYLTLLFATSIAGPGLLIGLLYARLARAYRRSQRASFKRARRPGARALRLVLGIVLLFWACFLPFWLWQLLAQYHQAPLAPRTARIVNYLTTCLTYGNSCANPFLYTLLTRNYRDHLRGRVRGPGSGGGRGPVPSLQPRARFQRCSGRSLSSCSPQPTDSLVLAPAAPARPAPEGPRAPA
# T9 sequence (P25105 whole entry): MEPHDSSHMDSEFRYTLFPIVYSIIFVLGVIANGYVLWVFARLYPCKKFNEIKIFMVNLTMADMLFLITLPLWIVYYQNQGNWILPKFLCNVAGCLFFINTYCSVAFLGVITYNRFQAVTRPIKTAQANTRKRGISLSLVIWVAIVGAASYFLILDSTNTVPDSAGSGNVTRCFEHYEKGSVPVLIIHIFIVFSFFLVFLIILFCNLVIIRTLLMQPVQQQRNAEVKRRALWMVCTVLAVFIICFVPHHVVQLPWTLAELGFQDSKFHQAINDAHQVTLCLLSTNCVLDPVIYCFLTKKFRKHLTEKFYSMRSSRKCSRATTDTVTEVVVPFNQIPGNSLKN
# T1 sequence (P34947 whole entry): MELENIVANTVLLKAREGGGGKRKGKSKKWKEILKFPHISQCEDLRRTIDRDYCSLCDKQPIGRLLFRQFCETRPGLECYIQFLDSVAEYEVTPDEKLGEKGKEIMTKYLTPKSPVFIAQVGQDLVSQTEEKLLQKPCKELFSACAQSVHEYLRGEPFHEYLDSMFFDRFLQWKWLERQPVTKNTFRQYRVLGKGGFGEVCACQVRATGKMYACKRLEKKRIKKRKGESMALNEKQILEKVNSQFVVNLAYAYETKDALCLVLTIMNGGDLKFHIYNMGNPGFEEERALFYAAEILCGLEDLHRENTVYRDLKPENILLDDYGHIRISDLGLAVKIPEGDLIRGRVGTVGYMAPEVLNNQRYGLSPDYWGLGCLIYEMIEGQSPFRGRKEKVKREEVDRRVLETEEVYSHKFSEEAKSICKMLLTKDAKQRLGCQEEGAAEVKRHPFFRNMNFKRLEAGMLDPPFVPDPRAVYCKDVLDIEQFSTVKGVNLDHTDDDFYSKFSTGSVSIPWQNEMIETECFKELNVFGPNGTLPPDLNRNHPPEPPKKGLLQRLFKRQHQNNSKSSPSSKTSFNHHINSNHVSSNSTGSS
smiles,measurement,setting,value
"Cn1ncc2cc(-c3cnc(N)c(Cl)c3N3CCC4(CCNC4=O)CC3)ccc21 [Compound 109, 8-(2-Amino-3-chloro-5-(1-methyl-1H-indazol-5-yl)pyridin-4-yl)-2,8-diazaspiro[4.5]decan-1-one]",% effect,CSK,8%
same,% effect,BTK(R28H),2%
same,inhibition at 10 µM,[1],-12%
same,% effect,ABL(T315I),4%
same,% effect,PDK1,1%
same,% effect,PHKGAMMA2,11%
same,% effect,GRK5,7%
same,% Inhibition of Control Specific Binding,AR (h),-2%
same,% effect,ZIPK,6%
same,inhibition at 10 µM,D2S (h),-5%
same,% effect,cMET (Y1248D),-1%
same,% effect,SAPK4,-1%
same,% effect,SAPK2A,-6%
same,% Inhibition of Control Specific Binding,AMPA,3%
same,% effect,PLK1,-3%
same,% effect,MST1,4%
same,% effect,JAK3,4%
same,% effect,SGK2,-3%
same,% effect,NEK3,-11%
same,inhibition at 10 µM,5-HT2C (h),6%
same,% effect,VRK2,3%
same,% effect,GSK3BETA,-11%
same,% effect,PDGFRBETA,-9%
same,% effect,PAK2,-10%
same,% effect,BRK,13%
same,inhibition at 10 µM,PAF (h),-4%
same,% effect,EGFR,4%
same,% effect,AURKA,-16%
same,% effect,MST3,-11%
same,% effect,ZAP-70,21%
same,% effect,FGFR2,4%
same,% effect,GRK6,5%
same,% effect,CDK7/CYCLINH/MAT1,5%
same,inhibition at 10 µM,UT (h),33%
same,% effect,EPHB1,3%
same,% effect,PASK,-20%
same,inhibition at 10 µM,N muscle-type (h),11%
same,% effect,BLK,11%
same,% effect,FGR,-2%
same,% effect,RSE,1%
same,% effect,IGF-1R,-26%
same,% effect,FGFR1,7%
same,% effect,LOK,11%
